Assay type in all cases: cell-based
In assay [1] the target is T1, human (α4)2(β2)2β3 nAChRs (Homo sapiens, UniProt P17787+P43681+Q05901).
T1 construct: expressed in transfected cells
In words: FLEXstation membrane potential assay in HEK cells stably expressing (α4)2(β2)2β3 nAChRs. Conditions: ±SEM. From the text: (§1) Human embryonic kidney (HEK) cell lines stably expressing human (α4)2(β2)2β2/α4 (α4β2*) nAChRs, (α4)2(β2)2α5 nAChRs, (α4)2(β2)2β3 nAChRs, (α3)2(β4)2α3/β4 (α3β4*) nAChRs, (α3)2(β2)2α3/β2 (α3β2*) nAChRs, (α3)2(β4)2α5 nAChRs, or (α3)2(β2)2α5 nAChRs were maintained as described previously ([Wang et al., 2015]; [Kuryatov et al., 2005]; [Caligiuri et al., 2022]). The FLEXstation bench top scanning fluorometer from Molecular Devices was used to assay nAChR function in these cells, according to published protocols ([Wang et al., 2015]; [Kuryatov et al., 2005]). The membrane potential kit (Molecular Devices) was used according to the manufacturer’s protocols. Serial dilutions of SR9883 were manually added to the assay plate 15 min prior to recording. […] Compound dilutions were prepared in V-shaped 96-well plates (Fisher Scientific Co.) and added to cell culture wells at a rate of 20 μL s^−1 during recording. Cells were incubated at 29°C for 6–20 h prior to assays to upregulate nAChRs ([Wang et al., 2015]; [Kuryatov et al., 2005]). Data points were averaged from 3 to 4 responses from separate wells. Potency and efficacy were calculated using the Hill equation as described previously ([Wang et al., 2015]).
Concentration-response curves of SR9883 actions in nAChR-expressing HEK cells and oocytes were fitted to the Hill equation using a nonlinear least squares curve fit method and efficacy and potency values were calculated as previously described ([Wang et al., 2015]). Plasma and brain levels of SR9983 after oral administration were compared using a two-tailed paired t test. […] For the ICSS threshold experiment, percentages of baseline reward threshold scores were calculated by expressing the absolute threshold scores as a percentage of the scores obtained during baseline. The baseline values were the mean thresholds on the three sessions prior to drug injections. Response latency data were analyzed in the same manner as the threshold data. […] Effects of SR9883 on responding for food pellets in rats was analyzed by a two-tailed paired t test. […]

Assay [2] concerns the target human (α4)2(β2)2β2/α4 (α4β2*) nAChRs (Homo sapiens, UniProt P17787+P43681). The experiment in a line: FLEXstation membrane potential assay in HEK cells stably expressing α4β2* nAChRs. The arrangement: expressed in transfected cells.
Description: as §1
Concentration-response curves of SR9883 actions in nAChR-expressing HEK cells and oocytes were fitted to the Hill equation using a nonlinear least squares curve fit method and efficacy and potency values were calculated as previously described ([Wang et al., 2015]). Plasma and brain levels of SR9983 after oral administration were compared using a two-tailed paired t test. […] For the ICSS threshold experiment, percentages of baseline reward threshold scores were calculated by expressing the absolute threshold scores as a percentage of the scores obtained during baseline. The baseline values were the mean thresholds on the three sessions prior to drug injections. Response latency data were analyzed in the same manner as the threshold data. […] Effects of SR9883 on responding for food pellets in rats was analyzed by a two-tailed paired t test. […] Significant main or interaction effects in ANOVAs were followed by Bonferroni or Newman–Keuls post-hoc tests as appropriate. All statistical analyses were performed using GraphPad Prism software with α set to 0.05.

The test system of assay [3] is human (α3)2(β4)2α3/β4 (α3β4*) nAChRs. In words: FLEXstation membrane potential assay in HEK cells stably expressing α3β4* nAChRs. The settings on record: SR9883 0.0005–10 μM. From the text: Human embryonic kidney (HEK) cell lines stably expressing human (α4)2(β2)2β2/α4 (α4β2*) nAChRs, (α4)2(β2)2α5 nAChRs, (α4)2(β2)2β3 nAChRs, (α3)2(β4)2α3/β4 (α3β4*) nAChRs, (α3)2(β2)2α3/β2 (α3β2*) nAChRs, (α3)2(β4)2α5 nAChRs, or (α3)2(β2)2α5 nAChRs were maintained as described previously ([Wang et al., 2015]; [Kuryatov et al., 2005]; [Caligiuri et al., 2022]). The FLEXstation bench top scanning fluorometer from Molecular Devices was used to assay nAChR function in these cells, according to published protocols ([Wang et al., 2015]; [Kuryatov et al., 2005]). The membrane potential kit (Molecular Devices) was used according to the manufacturer’s protocols. Serial dilutions of SR9883 were manually added to the assay plate 15 min prior to recording. […] Potency and efficacy were calculated using the Hill equation as described previously ([Wang et al., 2015]).
Concentration-response curves of SR9883 actions in nAChR-expressing HEK cells and oocytes were fitted to the Hill equation using a nonlinear least squares curve fit method and efficacy and potency values were calculated as previously described ([Wang et al., 2015]). […] For the ICSS threshold experiment, percentages of baseline reward threshold scores were calculated by expressing the absolute threshold scores as a percentage of the scores obtained during baseline. […] Response latency data were analyzed in the same manner as the threshold data. […]

What is called EC50 is the midpoint of the concentration-response curve. A low value points to a more potent agent.

Molecules are shown by their SMILES. “Also recorded” adds a separate entry of the source.

T1 sequence (P43681 29-627 limits assumed): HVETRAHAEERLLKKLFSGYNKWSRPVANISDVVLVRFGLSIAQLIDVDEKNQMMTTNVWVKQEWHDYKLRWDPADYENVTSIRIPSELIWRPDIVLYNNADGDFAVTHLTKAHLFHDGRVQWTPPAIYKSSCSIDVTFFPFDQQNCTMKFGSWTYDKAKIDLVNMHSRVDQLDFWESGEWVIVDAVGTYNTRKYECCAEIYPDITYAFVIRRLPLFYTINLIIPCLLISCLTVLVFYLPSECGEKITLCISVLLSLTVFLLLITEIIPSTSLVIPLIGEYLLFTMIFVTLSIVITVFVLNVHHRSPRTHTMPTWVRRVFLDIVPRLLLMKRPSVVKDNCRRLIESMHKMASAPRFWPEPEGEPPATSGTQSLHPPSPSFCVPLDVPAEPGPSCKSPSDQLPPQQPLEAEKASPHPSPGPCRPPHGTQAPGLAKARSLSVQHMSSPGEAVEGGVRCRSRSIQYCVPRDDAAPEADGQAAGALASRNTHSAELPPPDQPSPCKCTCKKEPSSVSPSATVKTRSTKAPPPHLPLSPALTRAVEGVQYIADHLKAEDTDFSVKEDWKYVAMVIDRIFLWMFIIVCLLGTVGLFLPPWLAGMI
T1 sequence (P17787 26-502): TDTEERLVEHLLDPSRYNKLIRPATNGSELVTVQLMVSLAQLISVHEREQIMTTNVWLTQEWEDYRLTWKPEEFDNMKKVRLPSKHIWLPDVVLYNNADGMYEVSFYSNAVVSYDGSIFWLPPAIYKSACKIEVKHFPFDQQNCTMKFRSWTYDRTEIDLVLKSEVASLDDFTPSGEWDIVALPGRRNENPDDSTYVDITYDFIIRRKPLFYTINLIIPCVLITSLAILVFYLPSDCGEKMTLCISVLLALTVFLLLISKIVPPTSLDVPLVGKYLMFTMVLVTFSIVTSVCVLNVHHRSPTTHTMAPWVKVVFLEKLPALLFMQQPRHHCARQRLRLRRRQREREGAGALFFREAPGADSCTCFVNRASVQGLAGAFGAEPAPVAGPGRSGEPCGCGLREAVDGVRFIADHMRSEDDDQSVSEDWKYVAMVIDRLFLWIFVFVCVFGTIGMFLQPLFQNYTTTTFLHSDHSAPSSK
T1 sequence (Q05901 25-458 limits assumed): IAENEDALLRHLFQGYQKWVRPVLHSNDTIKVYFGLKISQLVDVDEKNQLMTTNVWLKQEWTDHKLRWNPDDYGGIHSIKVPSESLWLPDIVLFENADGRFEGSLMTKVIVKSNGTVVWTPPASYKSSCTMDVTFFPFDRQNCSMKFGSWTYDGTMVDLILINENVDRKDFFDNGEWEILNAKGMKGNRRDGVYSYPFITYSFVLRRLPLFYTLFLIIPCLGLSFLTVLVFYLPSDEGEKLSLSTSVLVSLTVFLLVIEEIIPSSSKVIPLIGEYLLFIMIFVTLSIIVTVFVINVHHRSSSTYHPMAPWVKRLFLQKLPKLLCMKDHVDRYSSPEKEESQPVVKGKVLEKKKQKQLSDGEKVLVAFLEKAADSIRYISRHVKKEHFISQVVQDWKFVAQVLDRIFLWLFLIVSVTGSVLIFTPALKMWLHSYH
Chain of human (α4)2(β2)2β2/α4 (α4β2*) nAChRs (P43681 27-627): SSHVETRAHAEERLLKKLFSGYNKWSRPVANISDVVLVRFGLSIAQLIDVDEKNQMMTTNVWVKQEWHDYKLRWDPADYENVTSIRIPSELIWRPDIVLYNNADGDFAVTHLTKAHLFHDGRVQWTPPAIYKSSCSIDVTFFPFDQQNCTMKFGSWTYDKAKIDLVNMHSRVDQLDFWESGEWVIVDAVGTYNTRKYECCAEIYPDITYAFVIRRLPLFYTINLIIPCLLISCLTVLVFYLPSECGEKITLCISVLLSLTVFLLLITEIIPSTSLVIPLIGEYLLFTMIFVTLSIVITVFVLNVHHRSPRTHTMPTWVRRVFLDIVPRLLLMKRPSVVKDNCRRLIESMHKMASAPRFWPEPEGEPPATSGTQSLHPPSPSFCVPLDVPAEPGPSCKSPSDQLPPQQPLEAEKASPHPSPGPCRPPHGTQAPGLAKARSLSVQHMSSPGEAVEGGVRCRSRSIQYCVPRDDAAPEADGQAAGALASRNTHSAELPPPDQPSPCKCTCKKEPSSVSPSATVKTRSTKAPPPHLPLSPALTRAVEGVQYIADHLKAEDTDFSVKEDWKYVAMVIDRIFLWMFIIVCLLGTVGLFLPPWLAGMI
Chain of human (α4)2(β2)2β2/α4 (α4β2*) nAChRs (P17787 26-502): as the sequence (P17787 26-502) above

With `N#Cc1cccc(-n2nnc(-c3cccnc3)n2)c1` [SR9883, 3-(5-(pyridin-3-yl)-2H-tetrazol-2-yl)benzonitrile], the EC50 in assay [1] (SR9883 0.0005–10 μM on response to EC20-30 nicotine, HEK cells) stood at 0.224 ± 0.149 µM; in assay [2] (SR9883 0.0005–10 μM on response to EC20-30 nicotine, HEK cells, ±SEM), 0.381 ± 0.0916 µM. Further, the nHill in assay [1] (SR9883 0.0005–10 μM on response to EC20-30 nicotine) was 0.8567 ± 0.3792; in assay [2] (SR9883 0.0005–10 μM on response to EC20-30 nicotine, ±SEM), 1.1015 ± 0.2269. Also, the Efficacy in assay [1] (response to EC20-30 nicotine with SR9883 relative to nicotine alone) was 96.44 ± 15.93%; in assay [2] (response to EC20-30 nicotine with SR9883 relative to nicotine alone, ±SEM), 108.92 ± 7.65%. Besides, the “Effect on maximum response to nicotine” value in assay [2] (SR9883 10 μM, nicotine 0.001–50 μM) is “no effect”. Moreover, the “EC50 (enhancement of response to EC20-30 nicotine)” value in assay [3] is given as “no effect; also recorded: No enhancement”.

The record behind these values is paper PMC11428108 (Frontiers in Molecular Neuroscience, 2024).
